This note sets out measurements from US10717733B2, “Haloallylamine indole and azaindole derivative inhibitors of lysyl oxidases and uses thereof” (PHARMAXIS LTD., priority 2016, dated 2020).

Counter-ions that a name gives are not always drawn.

Usually IC50 stands for the concentration that inhibits the measured activity by half.

Type in all cases: biochemical
One assay deals with Human LOXL2 (Homo sapiens (Human), UniProt Q9Y4K0). The experiment in a line: LOXL2 inhibition, peroxidase-coupled Amplex Red amine oxidase assay. The following applies: 30 min preincubation at 37° C., putrescine substrate. Summed up: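 Enzyme in 1.2 M urea, 50 mM sodium borate pH 8.2 with 1 μM mofegiline and 0.5 mM pargyline, preincubated 30 min at 37° C with compound (11-point CRC). Putrescine at twice KM (10 mM for LOXL2) with Amplex Red/HRP; fluorescence (ex 565, em 590) read kinetically 30 min; IC50 from slopes.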

In the next assay the target is Bovine LOX (Bos taurus (Bovine), UniProt P33072). As to the kind of experiment: LOX inhibition, peroxidase-coupled Amplex Red amine oxidase assay. The conditions noted are these: 30 min preincubation at 37° C., putrescine substrate. Summed up:
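Bovine LOX in 1.2 M urea, 50 mM sodium borate pH 8.2 with 1 μM mofegiline and 0.5 mM pargyline; putrescine at twice KM (e.g. 20 mM for LOX) with Amplex Red/HRP. Fluorescence (ex 565/em 590 nm) read kinetically over 30 min at 37–45 °C; IC50 from slopes.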

The next assay deals with Recombinant human MAO-B (Homo sapiens (Human), UniProt P27338). As to the kind of experiment: Inhibition of human recombinant MAO-B. The following applies: benzylamine 100 μM. Summed up:
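Recombinant human MAO-B used as enzyme source (0.06 mg/mL, stated concentration). Run as for the human SSAO/VAP-1 assay, except benzylamine substrate at 100 μM.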

In assay [1] the target is human recombinant SSAO/VAP-1 (Homo sapiens (Human), UniProt Q16853). The experiment in a line: Inhibition of human recombinant SSAO/VAP-1 amine oxidase activity. The conditions noted are these: 30 min preincubation at 37° C., 600 μM benzylamine. Summed up: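 Purified SSAO/VAP-1 (residues 34-763, expressed in CHO Lec 8 cells; 0.25 μg/mL) preincubated 30 min at 37° C with compound in 0.1 M sodium phosphate pH 7.4. Reaction mix of 600 μM benzylamine, 120 μM Amplex Red and 1.5 U/mL HRP added; fluorescence (ex 565/em 590 nm) read every 2.5 min for 30 min; IC50 from kinetic slopes over 4-11 point curves.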
Sequence of human recombinant SSAO/VAP-1 (Q16853 34-763): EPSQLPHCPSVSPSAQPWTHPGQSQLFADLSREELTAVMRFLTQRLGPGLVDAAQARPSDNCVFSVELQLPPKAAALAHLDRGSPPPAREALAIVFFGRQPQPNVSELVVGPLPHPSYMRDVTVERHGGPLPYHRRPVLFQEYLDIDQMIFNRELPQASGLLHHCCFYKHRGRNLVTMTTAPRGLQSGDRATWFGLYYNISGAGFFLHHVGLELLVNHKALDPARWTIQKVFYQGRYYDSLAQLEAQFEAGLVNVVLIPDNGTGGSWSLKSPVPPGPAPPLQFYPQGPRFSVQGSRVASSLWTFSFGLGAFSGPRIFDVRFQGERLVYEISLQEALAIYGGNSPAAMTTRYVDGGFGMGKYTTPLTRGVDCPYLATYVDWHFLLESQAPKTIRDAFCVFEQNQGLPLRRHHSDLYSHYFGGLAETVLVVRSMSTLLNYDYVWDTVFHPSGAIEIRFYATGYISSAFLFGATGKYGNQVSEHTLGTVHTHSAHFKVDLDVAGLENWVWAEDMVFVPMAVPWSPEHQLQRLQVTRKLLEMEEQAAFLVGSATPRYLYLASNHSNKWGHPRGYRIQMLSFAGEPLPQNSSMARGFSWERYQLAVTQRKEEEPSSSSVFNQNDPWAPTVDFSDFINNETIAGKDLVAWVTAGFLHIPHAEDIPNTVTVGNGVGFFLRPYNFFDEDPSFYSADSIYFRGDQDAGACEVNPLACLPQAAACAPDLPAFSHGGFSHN

Sequence of Recombinant human MAO-B (P27338 whole entry): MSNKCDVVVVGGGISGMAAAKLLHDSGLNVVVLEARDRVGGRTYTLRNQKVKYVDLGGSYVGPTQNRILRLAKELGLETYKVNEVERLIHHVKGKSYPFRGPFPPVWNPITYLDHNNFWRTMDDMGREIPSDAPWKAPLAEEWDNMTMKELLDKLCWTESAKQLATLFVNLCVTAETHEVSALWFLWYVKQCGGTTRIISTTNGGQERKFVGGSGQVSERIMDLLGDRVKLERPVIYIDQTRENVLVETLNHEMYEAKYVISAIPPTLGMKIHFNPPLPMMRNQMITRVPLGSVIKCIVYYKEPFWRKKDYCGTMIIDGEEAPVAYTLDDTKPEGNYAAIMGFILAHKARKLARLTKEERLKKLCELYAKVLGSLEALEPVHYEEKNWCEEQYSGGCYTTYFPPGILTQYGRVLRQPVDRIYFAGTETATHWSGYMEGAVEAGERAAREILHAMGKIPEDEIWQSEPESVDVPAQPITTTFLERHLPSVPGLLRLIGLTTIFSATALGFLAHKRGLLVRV
Sequence of Bovine LOX (P33072 170-418): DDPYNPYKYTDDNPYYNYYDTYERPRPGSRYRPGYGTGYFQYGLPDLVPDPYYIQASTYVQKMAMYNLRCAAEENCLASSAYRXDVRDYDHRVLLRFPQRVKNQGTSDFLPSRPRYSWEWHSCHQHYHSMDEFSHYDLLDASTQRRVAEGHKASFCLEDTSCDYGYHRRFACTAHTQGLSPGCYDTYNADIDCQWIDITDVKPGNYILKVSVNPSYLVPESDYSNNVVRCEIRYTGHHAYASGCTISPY
Sequence of Human LOXL2 (Q9Y4K0 26-774): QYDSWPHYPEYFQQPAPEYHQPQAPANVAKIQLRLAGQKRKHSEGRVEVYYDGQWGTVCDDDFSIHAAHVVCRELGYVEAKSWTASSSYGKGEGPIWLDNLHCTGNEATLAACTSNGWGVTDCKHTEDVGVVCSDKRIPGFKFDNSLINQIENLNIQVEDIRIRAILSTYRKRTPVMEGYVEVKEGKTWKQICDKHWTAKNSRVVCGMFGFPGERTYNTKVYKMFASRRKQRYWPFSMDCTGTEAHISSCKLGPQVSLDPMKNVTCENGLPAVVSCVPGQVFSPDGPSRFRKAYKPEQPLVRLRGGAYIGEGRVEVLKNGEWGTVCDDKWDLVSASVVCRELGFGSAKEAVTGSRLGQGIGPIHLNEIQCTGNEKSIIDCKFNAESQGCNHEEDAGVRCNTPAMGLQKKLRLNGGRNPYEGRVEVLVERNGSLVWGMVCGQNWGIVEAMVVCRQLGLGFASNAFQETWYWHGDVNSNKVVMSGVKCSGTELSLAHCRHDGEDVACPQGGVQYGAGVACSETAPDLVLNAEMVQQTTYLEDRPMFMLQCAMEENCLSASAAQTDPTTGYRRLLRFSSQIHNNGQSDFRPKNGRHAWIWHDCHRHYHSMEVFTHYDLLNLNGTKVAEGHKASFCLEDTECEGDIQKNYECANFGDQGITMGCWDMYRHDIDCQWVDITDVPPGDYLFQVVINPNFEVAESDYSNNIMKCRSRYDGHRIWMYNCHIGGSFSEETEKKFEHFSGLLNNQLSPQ

Take `Cc1c(-c2cncc(S(=O)(=O)N(C)C)c2)c2cc(Cl)cnc2n1C/C(F)=C/CN` [Compound 73, (Z)-5-(1-(4-amino-2-fluorobut-2-en-1-yl)-5-chloro-2-methyl-1H-pyrrolo[2,3-b]pyridin-3-yl)-N,N-dimethylpyridine-3-sulfonamide]: the IC50 against Human LOXL2 was less than 300 nM; against Bovine LOX, more than 300 nM; at Recombinant human MAO-B, more than 3000 nM; in assay [1], more than 3000 nM.
Take `Cc1c(-c2ccccc2)c2cc(S(=O)(=O)N(C)C)ccc2n1C/C(F)=C/CN` [Compound 86, (Z,)-1-(4-amino-2-fluorobut-2-en-1-yl)-N,N,2-trimethyl-3-phenyl-1H-indole-5-sulfonamide]: the IC50 against Human LOXL2 is less than 300 nM; against Bovine LOX, more than 300 nM; at Recombinant human MAO-B, more than 3000 nM; in assay [1], more than 3000 nM.
For `Cc1c(-c2cccc(S(=O)(=O)N(C)C)c2)c2ncc(F)cc2n1C/C(F)=C/CN` [Compound 108, (Z)-3-(1-(4-amino-2-fluorobut-2-en-1-yl)-6-fluoro-2-methyl-1H-pyrrolo[3,2-b]pyridin-3-yl)-N,N-dimethylbenzenesulfonamide], the IC50 on Human LOXL2 was less than 300 nM; against Bovine LOX, more than 300 nM; on Recombinant human MAO-B, more than 3000 nM; in assay [1], more than 3000 nM.
In the case of `Cc1c(-c2cccc(C(=O)O)c2)c2cc(S(=O)(=O)N(C)C)ccc2n1C/C(F)=C/CN` [Compound 34, (Z)-3-(1-(4-amino-2-fluorobut-2-en-1-yl)-5-(N,N-dimethylsulfamoyl)-2-methyl-1H-indol-3-yl)benzoic acid], the IC50 against Human LOXL2 is less than 300 nM; on Bovine LOX it was more than 300 nM; at Recombinant human MAO-B it was more than 3000 nM; in assay [1], more than 3000 nM.
As to `Cc1c(-c2cccc(S(=O)(=O)N(C)C)c2)c2cccc(C(=O)N(C)C)c2n1C/C(F)=C/CN` [Compound 47, (Z)-1-(4-amino-2-fluorobut-2-en-1-yl)-3-(3-(N,N-dimethylsulfamoyl)phenyl)-N,N,2-trimethyl-1H-indole-7-carboxamide], the IC50 on Human LOXL2 was less than 300 nM; on Bovine LOX it was more than 300 nM; on Recombinant human MAO-B, more than 3000 nM; in assay [1], more than 3000 nM.
Regarding `Cc1c(-c2cncc(S(C)(=O)=O)c2)c2cc(Cl)ccc2n1C/C(F)=C/CN` [Compound 65, (Z)-4-(5-chloro-2-methyl-3-(5-(methylsulfonyl)pyridin-3-yl)-1H-indol-1-yl)-3-fluorobut-2-en-1-amine], the IC50 against Human LOXL2 was less than 300 nM; against Bovine LOX it was more than 300 nM; at Recombinant human MAO-B it was more than 3000 nM; in assay [1], more than 3000 nM.
As to `Cc1c(-c2ccccc2)c2cc(S(C)(=O)=O)ccc2n1C/C(F)=C/CN` [Compound 87, (Z)-3-fluoro-4-(2-methyl-5-(methylsulfonyl)-3-phenyl-1H-indol-1-yl)but-2-en-1-amine], the IC50 at Human LOXL2 is less than 300 nM; against Bovine LOX it was more than 300 nM; at Recombinant human MAO-B, more than 3000 nM; in assay [1] it was more than 3000 nM.
As to `Cc1c(-c2cccc(S(=O)(=O)N(C)C)c2)c2nc(C(=O)N(C)C)ccc2n1C/C(F)=C/CN` [Compound 44, (Z)-1-(4-amino-2-fluorobut-2-en-1-yl)-3-(3-(N,N-dimethylsulfamoyl)phenyl)-N,N,2-trimethyl-1H-pyrrolo[3,2-b]pyridine-5-carboxamide], the IC50 is less than 300 nM against Human LOXL2, more than 300 nM at Bovine LOX, more than 3000 nM on Recombinant human MAO-B and more than 3000 nM in assay [1].
On to `COC(=O)c1ccc2c(-c3cccc(S(=O)(=O)N(C)C)c3)c(C)n(C/C(F)=C/CN)c2c1` [Compound 7, (Z)-methyl 1-(4-amino-2-fluorobut-2-en-1-yl)-3-(3-(N,N-dimethylsulfamoyl)phenyl)-2-methyl-1H-indole-6-carboxylate], for which the IC50 is less than 300 nM on Human LOXL2, more than 300 nM at Bovine LOX, more than 3000 nM on Recombinant human MAO-B and more than 3000 nM in assay [1].
`CCOC(=O)c1ccc2c(c1)c(-c1cccc(S(C)(=O)=O)c1)c(C)n2C/C(F)=C/CN` [Compound 17, (Z)-ethyl 1-(4-amino-2-fluorobut-2-en-1-yl)-2-methyl-3-(3-(methylsulfonyl)phenyl)-1H-indole-5-carboxylate]: the IC50 is less than 300 nM against Human LOXL2, more than 300 nM on Bovine LOX, more than 3000 nM at Recombinant human MAO-B and more than 3000 nM in assay [1].
In the case of `Cc1c(-c2cncc(S(=O)(=O)N(C)C)c2)c2ccc(Cl)cc2n1C/C(F)=C/CN` [Compound 67, (Z)-5-(1-(4-amino-2-fluorobut-2-en-l-yl)-6-chloro-2-methyl-1H-indol-3-yl)-N,N-dimethylpyridine-3-sulfonamide, Dihydrochloride], the IC50 was less than 300 nM at Human LOXL2, more than 300 nM at Bovine LOX, more than 3000 nM on Recombinant human MAO-B and more than 3000 nM in assay [1].
With `CCOC(=O)c1ccc2c(c1)c(-c1cccc(C(=O)N(C)C)c1)c(C)n2C/C(F)=C/CN` [Compound 15, (Z)-ethyl 1-(4-amino-2-fluorobut-2-en-1-yl)-3-(3-(dimethylcarbamoyl)phenyl)-2-methyl-1H-indole-5-carboxylate Hydrochloride], the IC50 is less than 300 nM at Human LOXL2, more than 300 nM against Bovine LOX, more than 3000 nM on Recombinant human MAO-B and more than 3000 nM in assay [1].
In the case of `Cc1c(-c2cccc(S(=O)(=O)N(C)C)c2)c2cc(-c3ncon3)ccc2n1C/C(F)=C/CN` [Compound 55, (Z)-3-(1-(4-amino-2-fluorobut-2-en-1-yl)-2-methyl-5-(1,2,4-oxadiazol-3-yl)-1H-indol-3-yl)-N,N-dimethylbenzenesulfonamide], the IC50 against Human LOXL2 is less than 300 nM; against Bovine LOX, more than 300 nM; at Recombinant human MAO-B it was more than 3000 nM; in assay [1] it was more than 3000 nM.
On to `COc1ccc2c(n1)c(-c1cccc(SC)c1)c(C)n2C/C(F)=C/CN` [Compound 68, (Z)-3-fluoro-4-(5-methoxy-2-methyl-3-(3-(methylthio)phenyl)-1H-pyrrolo[3,2-b]pyridin-1-yl)but-2-en-1-amine Dihydrochloride], for which the IC50 against Human LOXL2 is less than 300 nM; against Bovine LOX, more than 300 nM; on Recombinant human MAO-B, more than 3000 nM; in assay [1], more than 3000 nM.
Turning to `Cc1cc(-c2c(C)n(C/C(F)=C/CN)c3ccc(C(=O)N(C)C)cc23)cc(C)n1` [Compound 90, (Z)-1-(4-amino-2-fluorobut-2-en-1-yl)-3-(2,6-dimethylpyridin-4-yl)-N,N,2-trimethyl-1H-indole-5-carboxamide], the IC50 against Human LOXL2 is less than 300 nM; at Bovine LOX, more than 300 nM; at Recombinant human MAO-B, more than 3000 nM; in assay [1] it was more than 3000 nM.
As to `Cc1c(-c2ccncc2)c2cc(S(=O)(=O)N(C)C)ccc2n1C/C(F)=C/CN` [Compound 81, (Z)-1-(4-amino-2-fluorobut-2-en-1-yl)-N,N,2-trimethyl-3-(pyridin-4-yl)-1H-indole-5-sulfonamide], the IC50 against Human LOXL2 is less than 300 nM; against Bovine LOX it was more than 300 nM; on Recombinant human MAO-B, more than 3000 nM; in assay [1], more than 3000 nM.
Turning to `Cc1c(-c2cccc(C(C)(C)C)c2)c2cc(C(=O)O)ccc2n1C/C(F)=C/CN` [Compound 31, (Z)-1-(4-amino-2-fluorobut-2-en-l-yl)-3-(3-(tert-butyl)phenyl)-2-methyl-1H-indole-5-carboxylic acid, Hydrochloride], the IC50 at Human LOXL2 was less than 300 nM; on Bovine LOX it was more than 300 nM; at Recombinant human MAO-B it was more than 3000 nM; in assay [1], more than 3000 nM.
